The results in this text go back to US20130039928A1, “COMPOSITIONS AND METHODS FOR REVERSING CORTICOSTEROID RESISTANCE OR TREATING RESPIRATORY INFECTIONS” (priority 2010, published 2013).

Molecules are shown by their SMILES.

For one experiment, the system named is SNO proteins. Particulars: anti-SNO immunoblot, verified by DAN assay, vs vehicle. On the procedure:
S-nitrosylated proteins were detected by using the nitrate/nitrite fluorometric assay kit from Cayman chemicals (Ann Arbor, Mich.) according to the manufacturer's instructions. For HDAC2-specific nitrosylation detection, cells were lysed in buffer (50 mM Tris-HCl, pH 8.0, 150 mM NaCl, 1% Nonidet P-40, 0.5% deoxycholic acid, 0.1% SDS). These lysates were then subjected to immunoprecipitation by using an anti-HDAC2 antibody as described above. The immunoprecipitates were washed twice with lysis buffer and twice with PBS. The pellets were resuspended in 500 μL of PBS. After the addition of 100 μM HgCl2 and 100 μM DAN, the samples were incubated in the dark at 25° C. for 30 minutes, and 1 M NaOH was added. The generated fluorescent triazole from the reaction of the DAN with the NO released from the HDAC2 protein was measured by using an excitation wavelength of 375 nm and an emission wavelength of 450 nm. As a negative control, the antibody alone in lysis buffer was immunoprecipitated. The resulting background fluorescence intensity was subtracted for each experiment.
A general note: In western blotting, separated proteins are transferred to a membrane and probed.

Another experiment deals with glucocorticoid receptor. Description: Acetylated glucocorticoid receptor levels in alveolar macrophages. Type of experiment: cell-based, human. Particulars: compared to vehicle control. On the procedure: All immunoblots were performed by using protocols as described previously (Barnes, P. J., N Engl J Med 343, 269-280 (2000)). Rabbit anti-HDAC2 antibody from Santa Cruz Biotechnology (Santa Cruz, Calif.) was used at 1:500 dilutions. Rabbit anti-5-nitroso-cysteine antibody from Alpha diagnostics was used at 1:500 dilutions. Rabbit anti-nitro-tyrosine antibody from Cell Signaling Technology, was used at 1:250 dilution. Rabbit anti-ubiquitin antibody from Santa Cruz Biotechnology (Santa Cruz, Calif.) was used at 1:1000 dilutions. Rabbit anti-GR antibody from Santa Cruz Biotechnology (Santa Cruz, Calif.) was used at a dilution of 1:1000. Rabbit anti-MMP9 antibody from Sigma Aldrich was used at 1:500 dilutions. Rabbit anti-acetyl-lysine antibody from Abcam was used at 1:750 dilutions. Rabbit anti-lamin-B1 from Santa Cruz Biotechnology (Santa Cruz, Calif.) was used at 1:1000 dilutions as a loading control. The Image J program was used for densitometry analyses.

Another experiment relates to elastase. Particulars: alveolar macrophages treated with or without sulforaphane.

Turning to `C[S+]([O-])CCCCN=C=S` (stereo not drawn) [sulforaphane], in the experiment on SNO proteins, the “SNO proteins in lysates” value was “significant reduction in SNO proteins”. Also, in the experiment on glucocorticoid receptor, the “levels of acetylated-glucocorticoid receptor” value was “significant decrease in the levels of acetylated-glucocorticoid receptor”. Besides, the “elastase activity in cell free media” value in the experiment with elastase is “inhibition of elastase activity”.
